33 compounds from US10940139B2, “Compounds that interact with the Ras superfamily for the treatment of cancers, inflammatory diseases, rasopathies, and fibrotic disease” (Shy Therapeutics LLC, priority 2017, dated 2021) can be followed below.

The target of one test is Rho-A (Homo sapiens (Human), UniProt P61586). The test is described as follows: Rho inhibition assay (labeled GTP). In kind it is binding. The settings on record: read-out: Rho-A % Inh.
Test [1] has as its target KRas G12D/Q61H double mutant (Homo sapiens (Human), UniProt P01116, G12D/Q61H). The experiment in a line: Ras GTP binding domain inhibition assay (labeled GTP). Conditions: at 20 μM; read-out: KRas G12D Q61H % Inh. In outline:
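Inhibition of labeled GTP binding is measured on immobilized His-KRas protein in Tris buffer pH 7.5 with 1 mM MgCl2 and 1 mM DTT.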

A further test has as its target Rac-1 (Homo sapiens (Human), UniProt P63000). The test is described as follows: Rac inhibition assay (labeled GTP). The settings on record: read-out: Rac-1 % Inh. In kind it is binding.

SMILES strings stand for the structures.

Sequence of Rho-A (P61586 whole entry, the tested form may be a part): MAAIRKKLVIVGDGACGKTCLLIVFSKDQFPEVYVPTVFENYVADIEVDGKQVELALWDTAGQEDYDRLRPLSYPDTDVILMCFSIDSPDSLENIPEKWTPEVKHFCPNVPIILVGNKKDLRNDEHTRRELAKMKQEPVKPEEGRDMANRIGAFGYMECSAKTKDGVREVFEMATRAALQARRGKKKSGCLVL
Sequence of KRas G12D/Q61H double mutant (P01116-2 other isoform, or with tags, fused parts or gaps G12D/Q61H): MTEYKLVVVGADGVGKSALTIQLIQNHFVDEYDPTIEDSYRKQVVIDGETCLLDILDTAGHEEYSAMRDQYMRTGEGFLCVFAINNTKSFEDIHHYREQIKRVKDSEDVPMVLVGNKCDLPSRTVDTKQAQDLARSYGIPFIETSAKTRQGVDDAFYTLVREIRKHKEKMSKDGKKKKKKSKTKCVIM

`CC(C)c1nn(C)cc1-c1csc2c(O)nc(-c3ccccn3)nc12` [drawing 3820]: the inhibition at 20 µM (on Rho-A; in test [1]; on Rac-1) was 51 to 75% each time.

`Oc1nc(-c2ccccn2)nc2c(-c3ccc(C4CCC4)cc3)csc12` [drawing 3737]: the inhibition at 20 µM (at Rho-A; in test [1]; at Rac-1) was 51 to 75% in each case.

`Cc1cc(OC(F)F)ccc1-c1csc2c(O)nc(-c3ccccn3)nc12` [drawing 3750]: the inhibition at 20 µM at Rho-A lay within 1 to 25%; in test [1], 25 to 50%; at Rac-1, 25 to 50%.

Consider `O=C(c1csc2c(O)nc(-c3ccccn3)nc12)N1CCN(c2ccc(F)cc2)CC1` [drawing 3643], for which the inhibition at 20 µM is 51 to 75% at Rho-A, 0% in test [1] and 51 to 75% on Rac-1.

Turning to `Nc1nc(O)c2sc(-c3cccc(C(=O)N4CCC(O)C4)c3)cc2n1` (stereo not drawn) [drawing 3861], the inhibition at 20 µM (on Rho-A; in test [1]; at Rac-1) was 1 to 25% each time.

Turning to `COc1ccnc(-c2nc(O)c3c(CN)csc3n2)c1`, the inhibition at 20 µM is 25 to 50% at Rho-A, 0% in test [1] and 51 to 75% on Rac-1.

Take `O=C(c1csc2c(O)nc(-c3ccccn3)nc12)N1CCNC(Cc2ccc(F)cc2)C1` (stereo not drawn) [drawing 3703]: the values for the inhibition at 20 µM (on Rho-A; in test [1]; on Rac-1) were 76 to 100%, 51 to 75% and 76 to 100%, respectively.

Regarding `COc1nc(-c2ccccn2)nc2c(C3CCC3)csc12` [drawing 3799], the inhibition at 20 µM on Rho-A fell in the range of 76 to 100%; in test [1] it was 51 to 75%; at Rac-1, 76 to 100%.

Consider `O=C(c1csc2c(O)nc(-c3ccccn3)nc12)N1CCN(c2ccc(O)c(Cl)c2)CC1` [drawing 3692], for which the values for the inhibition at 20 µM (at Rho-A; in test [1]; at Rac-1) were 76 to 100%, 51 to 75% and 76 to 100%, respectively.

Turning to `COc1cnc(CNC(=O)c2sc3c(O)nc(-c4ccccn4)nc3c2C)[nH]c1=O` [drawing 3842], the inhibition at 20 µM is 1 to 25% at Rho-A, 1 to 25% in test [1] and 0% on Rac-1.

Consider `COc1nc(-c2ccccn2)nc2c(C3CCCCC3)csc12` [drawing 3798], for which the inhibition at 20 µM (on Rho-A; in test [1]; on Rac-1) was 1 to 25% in each case.

For the compound `COCCN(CCOC)c1nc(-c2ccccn2)nc2scc(C(=O)NCCc3ccc(OC)nc3)c12` [drawing 3681], the inhibition at 20 µM lay within 51 to 75% at Rho-A, 1 to 25% in test [1] and 51 to 75% at Rac-1.

As to `COc1cc(OC)cc(N2CCN(C(=O)c3csc4c(O)nc(-c5ccccn5)nc34)CC2)c1` [drawing 3646], the inhibition at 20 µM on Rho-A was 25 to 50%; in test [1], 0%; on Rac-1 it was 25 to 50%.

Turning to `COc1cnc(C(C)(C)N)nc1O` [drawing 3810], the inhibition at 20 µM on Rho-A is 0%; in test [1] it was 1 to 25%; at Rac-1, 1 to 25%.

For the compound `COc1cc(CCNC(=O)c2csc3nc(-c4ccccn4)nc(N4CCOCC4)c23)ccn1` [drawing 3636], the inhibition at 20 µM lay within 25 to 50% at Rho-A, 1 to 25% in test [1] and 51 to 75% at Rac-1.

On to `COc1ccccc1C1CN(C(=O)c2csc3c(O)nc(-c4ccccn4)nc23)CCO1` (stereo not drawn) [drawing 3656], for which the inhibition at 20 µM on Rho-A fell in the range of 76 to 100%; in test [1], 51 to 75%; at Rac-1 it was 76 to 100%.

Take `Oc1nc(-c2ccccn2)nc2c(Br)c(-c3ccccc3)sc12` [drawing 3871]: the inhibition at 20 µM on Rho-A was 1 to 25%; in test [1] it was 0%; at Rac-1 it was 25 to 50%.

In the case of `COC(=O)c1c(C)sc2c(O)nc(-c3ccccn3)nc12` [drawing 3792], the inhibition at 20 µM at Rho-A lay in the range of 76 to 100%; in test [1] it was 51 to 75%; on Rac-1 it was 76 to 100%.

As for `Nc1nc(-c2ccccn2)nc2scc(C(=O)O)c12` [drawing 3778], the inhibition at 20 µM was in the range of 51 to 75% on Rho-A, 25 to 50% in test [1] and 51 to 75% at Rac-1.

As for `COCCCCNC(=O)c1csc2nc(-c3ccccn3)nc(N3CCS(=O)(=O)CC3)c12` [drawing 3698], the inhibition at 20 µM (on Rho-A; in test [1]; at Rac-1) was 1 to 25% in each case.

Turning to `Nc1nc(O)c2sc(-c3cccc(C(=O)NCc4cccc(O)n4)c3)cc2n1` [drawing 3864], the inhibition at 20 µM was 0% at Rho-A, 0% in test [1] and 1 to 25% on Rac-1.

As to `N#Cc1cccc(N2CCN(C(=O)c3csc4c(O)nc(-c5ccccn5)nc34)CC2)c1` [drawing 3644], the figures for the inhibition at 20 µM (at Rho-A; in test [1]; at Rac-1) were 51 to 75%, 1 to 25% and 51 to 75%, respectively.

Regarding `O=C(c1csc2c(O)nc(-c3ccccn3)nc12)N1CCOC(c2cccc(F)c2)C1` (stereo not drawn) [drawing 3630], the inhibition at 20 µM lay within 1 to 25% at Rho-A, 25 to 50% in test [1] and 25 to 50% on Rac-1.

Consider `Oc1nc(-c2ccccn2)nc2c(-c3ccnn3-c3ccccn3)csc12` [drawing 3776], for which the inhibition at 20 µM lay in the range of 25 to 50% at Rho-A, 1 to 25% in test [1] and 25 to 50% on Rac-1.

`COc1ccc2c(c1)CCC2C(=O)Nc1ccnc(-c2ccccn2)n1` (stereo not drawn) [drawing 3684]: the inhibition at 20 µM on Rho-A lay within 51 to 75%; in test [1] it was 1 to 25%; at Rac-1 it was 51 to 75%.

Consider `COc1ccc(N2CCN(C(=O)c3csc4c(O)nc(-c5ccccn5)nc34)CC2)cc1O` [drawing 3691], for which the inhibition at 20 µM was in the range of 76 to 100% on Rho-A, 1 to 25% in test [1] and 76 to 100% on Rac-1.

In the case of `O=C(NCCc1ccncc1)c1csc2nc(-c3ccccn3)nc(N3CCOCC3)c12` [drawing 3668], the inhibition at 20 µM is 51 to 75% at Rho-A, 0% in test [1] and 76 to 100% on Rac-1.

In the case of `N#Cc1cccc(CCNC(=O)c2csc3nc(-c4ccccn4)nc(N4CCOCC4)c23)c1` [drawing 3676], the inhibition at 20 µM is 51 to 75% on Rho-A, 1 to 25% in test [1] and 51 to 75% at Rac-1.

As to `Oc1nc(-c2ccccn2)nc2cc(-c3cccc(Br)c3)sc12` [drawing 3882], the inhibition at 20 µM at Rho-A was 25 to 50%; in test [1], 25 to 50%; at Rac-1, 1 to 25%.

Take `Oc1nc(-c2ccccn2)nc2c(-c3cncc(F)c3)csc12` [drawing 3782]: the inhibition at 20 µM (on Rho-A; in test [1]; on Rac-1) was 1 to 25% throughout.

Consider `O=C(c1csc2c(O)nc(-c3ccccn3)nc12)N1CCOC(Cc2ccccc2)C1` (stereo not drawn) [drawing 3660], for which the inhibition at 20 µM at Rho-A is 76 to 100%; in test [1] it was 25 to 50%; at Rac-1 it was 76 to 100%.

For the compound `Cc1ccc(OC2CCCC2)c(-c2csc3c(O)nc(-c4ccccn4)nc23)c1` [drawing 3716], the inhibition at 20 µM (at Rho-A; in test [1]; at Rac-1) was 51 to 75% in each case.

`O=C(c1csc2c(O)nc(-c3ccccn3)nc12)N1CCN(Cc2ccc(O)c(Cl)c2)CC1` [drawing 3654]: the inhibition at 20 µM was 76 to 100% on Rho-A, 25 to 50% in test [1] and 76 to 100% on Rac-1.
